IC50 and EC50 data for 25 compounds are collected here from patent US9169252B2 (BRISTOL-MYERS SQUIBB COMPANY, priority 2014, dated 2015).

Usually pIC50 stands for the negative decadic logarithm of the IC50, by convention in mol/L. By pEC50 is commonly meant the EC50 on a negative log10 scale, so that one unit is a factor of ten.

pEC50, pIC50: −log10 of the molar value.

Assay [1] has as its target IRAK4 (Homo sapiens (Human), UniProt Q9NWZ3). The experiment in a line: IRAK4 Inhibition Assay. Conditions: IRAK4 Inhibition Assay; ATP 500 μM; read-out: IRAK4 IC50. In kind it is biochemical. Put shortly: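 IRAK4 combined with fluorescent substrate and compounds, reacted 60 min at room temperature, stopped with 35 mM EDTA. Substrate and phosphorylated product separated electrophoretically on a Caliper LabChip 3000 mobility-shift reader.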

For assay [2], the system named is TLR2 induced IL-6 in peripheral blood mononuclear cells (PBMCs). The assay is described as follows: PBMC TLR2 Induced IL-6 Assay. The format is cell-based, human. Conditions: Homo sapiens, PBMC, PBMC TLR2 Induced IL-6 Assay, lipoteichoic acid stimulation, IL-6 by ELISA; for pEC50: read-out: Cell EC50; for pIC50: read-out: Cell IC50. The method, boiled down: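 Lipoteichoic acid at 10 µg/ml served as TLR2 stimulus for 5 hours, following a 30-minute compound pretreatment at 37° C. Cells were Ficoll-isolated human PBMCs, 250000 cells/well, cultured in RPMI plus 10% heat-inactivated FCS.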
(In general: In an ELISA, binding on a coated surface is turned into a signal by an enzyme label.)

IRAK4, sequence (Q9NWZ3 whole entry, species assumed): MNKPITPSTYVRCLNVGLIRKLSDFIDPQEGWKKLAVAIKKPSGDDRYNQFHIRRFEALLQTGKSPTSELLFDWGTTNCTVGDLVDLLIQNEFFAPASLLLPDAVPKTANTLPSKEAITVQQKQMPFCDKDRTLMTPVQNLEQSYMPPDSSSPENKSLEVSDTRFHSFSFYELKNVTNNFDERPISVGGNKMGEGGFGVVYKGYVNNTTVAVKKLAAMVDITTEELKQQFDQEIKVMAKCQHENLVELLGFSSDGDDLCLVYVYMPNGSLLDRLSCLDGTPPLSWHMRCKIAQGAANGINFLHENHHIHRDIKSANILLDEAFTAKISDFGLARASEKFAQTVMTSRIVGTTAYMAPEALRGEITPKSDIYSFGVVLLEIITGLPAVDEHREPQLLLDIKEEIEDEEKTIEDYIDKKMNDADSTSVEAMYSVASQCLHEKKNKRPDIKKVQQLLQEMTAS

For the compound `CNC(=O)[C@H]1CC[C@H](NC(=O)c2cnc(-n3ncc4cc(C#N)cnc43)cc2NC(C)C)CC1` [Example 160, 6-(5-cyano-1H-pyrazolo[3,4-b]pyridin-1-yl)-4-(isopropylamino)-N-((trans)-4-(methylcarbamoyl)cyclohexyl)nicotinamide], in assay [1], the pIC50 was 8.24. Besides, in assay [2], the pEC50 was 6.75.

As for `CC(C)Nc1cc(-n2ncc3cc(C#N)cnc32)ncc1C(=O)N[C@H]1CC[C@H](S(C)(=O)=O)CC1` [Example 161, 6-(5-cyano-1H-pyrazolo[3,4-b]pyridin-1-yl)-4-(isopropylamino)-N-((trans)-4-(methylsulfonyl)cyclohexyl)nicotinamide], the negative-log IC50 (pIC50) in assay [1] was 8.17. For the same compound, the pEC50 in assay [2] was 6.60.

With `[2H]C([2H])([2H])NC(=O)[C@H]1CC[C@H](NC(=O)c2cnc(-n3ncc4cc(C#N)cnc43)cc2NC(C)C)CC1` [Example 162, 6-(5-cyano-1H-pyrazolo[3,4-b]pyridin-1-yl)-4-(isopropylamino)-N-((trans)-4-((^2H3)methylcarbamoyl)cyclohexyl)nicotinamide], the negative logarithm of the IC50 (pIC50) in assay [1] is 8.42. Moreover, the pEC50 in assay [2] is 6.89.

In the case of `CC(C)(O)[C@H](F)CNC(=O)c1cnc(-n2ncc3cc(C#N)cnc32)cc1NC1CCC(F)CC1` (stereo partly drawn) [Example 163, (R)-6-(5-cyano-1H-pyrazolo[3,4-b]pyridin-1-yl)-N-(2-fluoro-3-hydroxy-3-methylbutyl)-4-((4-fluorocyclohexyl)amino)nicotinamide], in assay [1], the pIC50 was 8.52. For the same compound, the pEC50 in assay [2] was 7.09.

On to `CC(=O)N[C@H]1CC[C@H](NC(=O)c2cnc(-n3ncc4cc(C#N)cnc43)cc2NC(C)C)CC1` [Example 164, N-((trans)-4-acetamidocyclohexyl)-6-(5-cyano-1H-pyrazolo[3,4-b]pyridin-1-yl)-4-(isopropylamino) nicotinamide], for which the negative-log IC50 (pIC50) in assay [1] was 8.46. Moreover, the pEC50 in assay [2] is 6.52.

As to `CC(C)Nc1cc(-n2ncc3cc(C#N)cnc32)ncc1C(=O)NC1CCc2nc(N)sc2C1` (stereo not drawn) [Example 165, N-(2-amino-4,5,6,7-tetrahydrobenzo[d]thiazol-6-yl)-6-(5-cyano-1H-pyrazolo[3,4-b]pyridin-1-yl)-4-(isopropylamino)nicotinamide], in assay [1], the negative logarithm of the IC50 (pIC50) is 8.04. The pEC50 in assay [2] is 6.76.

On to `CC(C)Nc1cc(-n2ncc3cc(C#N)cnc32)ncc1C(=O)N[C@H]1CC[C@H](NS(C)(=O)=O)CC1` [Example 166, 6-(5-cyano-1H-pyrazolo[3,4-b]pyridin-1-yl)-4-(isopropylamino)-N-((trans)-4-(methylsulfonamido)cyclohexyl)nicotinamide], for which the pIC50 in assay [1] is 8.34. Further, the pEC50 in assay [2] was 6.72.

Consider `CC(C)Nc1cc(-n2ncc3cc(C#N)cnc32)ncc1C(=O)NCC(F)(F)C(C)(C)O` [Example 167, 6-(5-Cyano-1H-pyrazolo[3,4-b]pyridin-1-yl)-N-(2,2-difluoro-3-hydroxy-3-methylbutyl)-4-(isopropylamino)nicotinamide], for which the pIC50 in assay [1] was 7.98. The pEC50 in assay [2] was 6.77.

For the compound `CC(C)Nc1cc(-n2ccc(-c3ccnnc3)n2)ncc1C(=O)NC[C@@H](F)C(C)(C)O` [Example 168, (R)—N-(2-Fluoro-3-hydroxy-3-methylbutyl)-4-(isopropylamino)-6-(3-(pyridazin-4-yl)-1H-pyrazol-1-yl)nicotinamide], the pIC50 in assay [1] was 7.88. Also, in assay [2], the pEC50 is 6.52.

Consider `CC(C)(O)[C@H](F)CNC(=O)c1cnc(-n2ncc3cc(C#N)cnc32)cc1NCC(F)(F)C(C)(C)O` [Example 169, (R)-6-(5-Cyano-1H-pyrazolo[3,4-b]pyridin-1-yl)-4-((2,2-difluoro-3-hydroxy-3-methylbutyl)amino)-N-(2-fluoro-3-hydroxy-3-methylbutyl)nicotinamide], for which the pIC50 in assay [1] is 8.48. The pEC50 in assay [2] was 6.69.

With `CC(C)Nc1cc(-n2cnc3cnc(N)nc32)ncc1C(=O)NC[C@@H](F)C(C)(C)O` [Example 171, (R)-6-(2-Amino-9H-purin-9-yl)-N-(2-fluoro-3-hydroxy-3-methylbutyl)-4-(isopropylamino)nicotinamide], the pIC50 in assay [1] was 8.43; in assay [2], 6.23. Moreover, the pEC50 in assay [2] was 6.68.

Take `CC(C)Nc1cc(-n2cnc3cnc(NCCO)nc32)ncc1C(=O)NC[C@@H](F)C(C)(C)O` [Example 172, (R)—N-(2-Fluoro-3-hydroxy-3-methylbutyl)-6-(2-((2-hydroxyethyl)amino)-9H-purin-9-yl)-4-(isopropylamino)nicotinamide]: the pIC50 was 8.60 in assay [1] and 5.00 in assay [2].

Consider `CC(C)Nc1cc(-n2ccc3cc(C#N)cnc32)ncc1C(=O)N[C@H]1CC[C@](F)(c2ccnn2C)CC1` [Example 174, 6-(5-Cyano-1H-pyrrolo[2,3-b]pyridin-1-yl)-N-((1s,4s)-4-fluoro-4-(1-methyl-1H-pyrazol-5-yl)cyclohexyl)-4-(isopropylamino)nicotinamide], for which the pIC50 in assay [1] is 8.48. For the same compound, the pEC50 in assay [2] was 6.74.

Consider `CC(C)Nc1cc(-n2ccc3cc(C#N)cnc32)ncc1C(=O)N[C@H]1CC[C@](O)(c2nccs2)CC1` [Example 175, 6-(5-cyano-1H-pyrrolo[2,3-b]pyridin-1-yl)-N-((1s,4s)-4-hydroxy-4-(thiazol-2-yl)cyclohexyl)-4-(isopropylamino)nicotinamide], for which the pIC50 in assay [1] is 8.30. Also, the pEC50 in assay [2] is 6.95.

With `CC(C)Nc1cc(-n2ccc3cc(C#N)cnc32)ncc1C(=O)N[C@H]1CC[C@](O)(c2nccn2C)CC1` [Example 176, 6-(5-cyano-1H-pyrrolo[2,3-b]pyridin-1-yl)-N-((1 s,4s)-4-hydroxy-4-(1-methyl-1H-imidazol-2-yl)cyclohexyl)-4-(isopropylamino) nicotinamide], the negative-log IC50 (pIC50) in assay [1] was 8.19. Besides, the pEC50 in assay [2] was 6.32.

For `CC(C)Nc1cc(-n2ccc3cc(C#N)cnc32)ncc1C(=O)N[C@H]1CC[C@](O)(c2cccnc2)CC1` [Example 177, 6-(5-cyano-1H-pyrrolo[2,3-b]pyridin-1-yl)-N-((1s,4s)-4-hydroxy-4-(pyridin-3-yl)cyclohexyl)-4-(isopropylamino)nicotinamide], in assay [1], the negative logarithm of the IC50 (pIC50) is 8.44. Also, the pEC50 in assay [2] was 6.45.

Consider `CC(C)Nc1cc(-n2ccc3cc(C#N)cnc32)ncc1C(=O)N[C@H]1CC[C@](O)(c2ccccn2)CC1` [Example 178, 6-(5-cyano-1H-pyrrolo[2,3-b]pyridin-1-yl)-N-((1s,4s)-4-hydroxy-4-(pyridin-2-yl)cyclohexyl)-4-(isopropylamino)nicotinamide], for which the pIC50 in assay [1] is 8.43. Also, in assay [2], the pEC50 was 7.00.

Take `CC(C)Nc1cc(-n2ccc3cc(C#N)cnc32)ncc1C(=O)N[C@H]1CC[C@](O)(c2ccncc2)CC1` [Example 179, 6-(5-cyano-1H-pyrrolo[2,3-b]pyridin-1-yl)-N-((1 s,4s)-4-hydroxy-4-(pyridin-4-yl)cyclohexyl)-4-(isopropylamino)nicotinamide]: the pIC50 in assay [1] was 8.55. Moreover, the pEC50 in assay [2] was 6.87.

Consider `CC(C)Nc1cc(-n2ccc3cc(C#N)cnc32)ncc1C(=O)N[C@H]1CC[C@](F)(c2nccs2)CC1` [Example 180, 6-(5-cyano-1H-pyrrolo[2,3-b]pyridin-1-yl)-N-((1s,4s)-4-fluoro-4-(thiazol-2-yl)cyclohexyl)-4-(isopropylamino)nicotinamide], for which the pIC50 in assay [1] is 8.28. Further, the negative-log EC50 (pEC50) in assay [2] is 6.68.

For the compound `CC(C)Nc1cc(-n2ccc3cc(C#N)cnc32)ncc1C(=O)N[C@H]1CC[C@](F)(c2nccn2C)CC1` [Example 181, 6-(5-cyano-1H-pyrrolo[2,3-b]pyridin-1-yl)-N-((1 s,4s)-4-fluoro-4-(1-methyl-1H-imidazol-2-yl)cyclohexyl)-4-(isopropylamino) nicotinamide], the pIC50 in assay [1] is 8.37. Besides, the pEC50 in assay [2] is 6.82.

In the case of `CC(C)Nc1cc(-n2ccc3cc(C#N)cnc32)ncc1C(=O)N[C@H]1CC[C@@](F)(c2nccn2C)CC1` [Example 182, 6-(5-cyano-1H-pyrrolo[2,3-b]pyridin-1-yl)-N-((trans)-4-fluoro-4-(1-methyl-1H-imidazol-2-yl)cyclohexyl)-4-(isopropylamino)nicotinamide], the pIC50 in assay [1] is 8.74. Also, the pEC50 in assay [2] is 7.13.

With `CC(C)Nc1cc(-n2ccc3cc(C#N)cnc32)ncc1C(=O)NC1CCC2(CC1)NC(=O)NC2=O` (stereo not drawn) [Example 183, 6-(5-Cyano-1H-pyrrolo[2,3-b]pyridin-1-yl)-N-(2,4-dioxo-1,3-diazaspiro[4.5]decan-8-yl)-4-(isopropylamino)nicotinamide], the pIC50 in assay [1] was 8.39. Further, in assay [2], the pEC50 is 6.75.

For `CC(C)Nc1cc(-n2ccc3cc(C#N)cnc32)ncc1C(=O)N[C@@H]1CC=C(c2ccncc2)CC1` [Example 184, (S)-6-(5-Cyano-1H-pyrrolo[2,3-b]pyridin-1-yl)-4-(isopropylamino)-N-(4-(pyridin-4-yl)cyclohex-3-en-1-yl)nicotinamide], the pIC50 in assay [1] was 8.26. The pEC50 in assay [2] was 6.36.

For the compound `CC(C)Nc1cc(-n2ccc3cnc(N(C)C)nc32)ncc1C(=O)NC[C@@H](F)C(C)(C)O` [Example 185, (R)-6-(2-(Dimethylamino)-7H-pyrrolo[2,3-d]pyrimidin-7-yl)-N-(2-fluoro-3-hydroxy-3-methylbutyl)-4-(isopropylamino)nicotinamide], the pIC50 in assay [1] is 8.47. Further, the pEC50 in assay [2] is 6.46.

On to `CC(C)Nc1cc(-n2ccc3cnc(N)nc32)ncc1C(=O)NC[C@@H](F)C(C)(C)O` [Example 186, (R)-6-(2-Amino-7H-pyrrolo[2,3-d]pyrimidin-7-yl)-N-(2-fluoro-3-hydroxy-3-methylbutyl)-4-(isopropylamino)nicotinamide], for which the pIC50 in assay [1] was 8.89. Further, the pEC50 in assay [2] is 7.36.
